In PMC9067983, “Identification of highly selective type II kinase inhibitors with chiral peptidomimetic tails” (Journal of Enzyme Inhibition and Medicinal Chemistry, 2022):
Where a SMILES comes first, the peptide text is derived from it. [ ]: non-standard residue; d: D form. The star is where a group is joined. X1 = Cc1ccc(Nc2ncc3c(n2)N(C)C(=O)N(c2cc(C(=O)*)ccc2C)C3)cn1; Aib = CC(C)(N)C(=O)O

Experiments:
Assay in all cases: kinase selectivity profiling
Assay type in all cases: biochemical
Details in all cases: 10µM ATP, read-out: % inhibition (relative to DMSO)
CDK3/cyclin E2 = molecular target: T1, CDK3/cyclin E2 (Homo sapiens, UniProt Q00526)
T1 construct: purchased Reaction Biology Corp
Description: (§1) Full panel kinase profiling and kinase IC50 measurement were performed by using Reaction Biology Corp. (San Diego, USA).

MARK3 = molecular target: T2, MARK3 (Homo sapiens, UniProt P27448)
T2 construct: purchased Reaction Biology Corp
Description: as §1

PLK2 = molecular target: T3, PLK2 (Homo sapiens, UniProt Q9NYY3)
T3 construct: purchased Reaction Biology Corp
Description: as §1

FLT1/VEGFR1 = molecular target: T4, FLT1/VEGFR1 (Homo sapiens, UniProt P17948)
T4 construct: purchased Reaction Biology Corp
Description: as §1

KHS/MAP4K5 = molecular target: T5, KHS/MAP4K5 (Homo sapiens, UniProt Q9Y4K4)
T5 construct: purchased Reaction Biology Corp
Description: as §1

DMPK = molecular target: T6, DMPK (Homo sapiens, UniProt Q09013)
T6 construct: purchased Reaction Biology Corp
Description: as §1

p38a/MAPK14 = molecular target: T7, p38a/MAPK14 (Homo sapiens, UniProt Q16539)
T7 construct: purchased Reaction Biology Corp
Description: as §1

CDK19/cyclin C = molecular target: T8, CDK19/cyclin C (Homo sapiens, UniProt Q9BWU1)
T8 construct: purchased Reaction Biology Corp
T8 sequence (Q9BWU1 whole entry): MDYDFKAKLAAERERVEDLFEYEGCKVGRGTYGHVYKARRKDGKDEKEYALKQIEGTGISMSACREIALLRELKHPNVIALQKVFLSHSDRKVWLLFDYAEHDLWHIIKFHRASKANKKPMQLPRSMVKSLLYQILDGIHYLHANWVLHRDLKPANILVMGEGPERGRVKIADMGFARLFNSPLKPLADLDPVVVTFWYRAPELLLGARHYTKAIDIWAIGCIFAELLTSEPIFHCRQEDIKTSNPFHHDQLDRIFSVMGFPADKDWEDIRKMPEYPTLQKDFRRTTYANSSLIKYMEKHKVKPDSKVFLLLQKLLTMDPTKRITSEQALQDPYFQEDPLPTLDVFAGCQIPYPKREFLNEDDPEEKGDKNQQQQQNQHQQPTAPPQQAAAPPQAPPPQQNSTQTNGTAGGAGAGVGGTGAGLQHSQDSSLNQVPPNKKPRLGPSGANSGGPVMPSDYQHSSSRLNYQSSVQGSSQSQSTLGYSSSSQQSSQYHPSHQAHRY
T8 sequence (P24863 whole entry partner): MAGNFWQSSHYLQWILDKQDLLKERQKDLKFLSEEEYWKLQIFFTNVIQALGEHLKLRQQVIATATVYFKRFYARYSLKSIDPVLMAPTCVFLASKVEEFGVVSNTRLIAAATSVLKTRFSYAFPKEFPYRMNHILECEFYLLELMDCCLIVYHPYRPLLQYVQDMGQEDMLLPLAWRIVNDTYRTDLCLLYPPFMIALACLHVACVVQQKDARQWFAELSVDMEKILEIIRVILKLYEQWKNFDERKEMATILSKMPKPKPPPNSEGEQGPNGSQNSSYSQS
Description: as §1

CDK4/cyclin D1 = molecular target: T9, CDK4/cyclin D1 (Homo sapiens, UniProt P11802)
T9 construct: purchased Reaction Biology Corp
Description: as §1

NIM1 = molecular target: T10, NIM1 (Homo sapiens, UniProt Q8IY84)
T10 construct: purchased Reaction Biology Corp
Description: as §1

RSK4 = molecular target: T11, RSK4 (Homo sapiens, UniProt Q9UK32)
T11 construct: purchased Reaction Biology Corp
Description: as §1

JNK1 = molecular target: T12, JNK1 (Homo sapiens, UniProt P45983)
T12 construct: purchased Reaction Biology Corp
Description: as §1

KSR2 = molecular target: T13, KSR2 (Homo sapiens, UniProt Q6VAB6)
T13 construct: purchased Reaction Biology Corp
Description: as §1

ROS/ROS1 = molecular target: T14, ROS/ROS1 (Homo sapiens, UniProt P08922)
T14 construct: purchased Reaction Biology Corp
Description: as §1

CDK7/cyclin H = molecular target: T15, CDK7/cyclin H (Homo sapiens, UniProt P50613)
T15 construct: purchased Reaction Biology Corp
Description: as §1

ERBB2/HER2 = molecular target: T16, ERBB2/HER2 (Homo sapiens, UniProt P04626)
T16 construct: purchased Reaction Biology Corp
T16 sequence (P04626 23-1255): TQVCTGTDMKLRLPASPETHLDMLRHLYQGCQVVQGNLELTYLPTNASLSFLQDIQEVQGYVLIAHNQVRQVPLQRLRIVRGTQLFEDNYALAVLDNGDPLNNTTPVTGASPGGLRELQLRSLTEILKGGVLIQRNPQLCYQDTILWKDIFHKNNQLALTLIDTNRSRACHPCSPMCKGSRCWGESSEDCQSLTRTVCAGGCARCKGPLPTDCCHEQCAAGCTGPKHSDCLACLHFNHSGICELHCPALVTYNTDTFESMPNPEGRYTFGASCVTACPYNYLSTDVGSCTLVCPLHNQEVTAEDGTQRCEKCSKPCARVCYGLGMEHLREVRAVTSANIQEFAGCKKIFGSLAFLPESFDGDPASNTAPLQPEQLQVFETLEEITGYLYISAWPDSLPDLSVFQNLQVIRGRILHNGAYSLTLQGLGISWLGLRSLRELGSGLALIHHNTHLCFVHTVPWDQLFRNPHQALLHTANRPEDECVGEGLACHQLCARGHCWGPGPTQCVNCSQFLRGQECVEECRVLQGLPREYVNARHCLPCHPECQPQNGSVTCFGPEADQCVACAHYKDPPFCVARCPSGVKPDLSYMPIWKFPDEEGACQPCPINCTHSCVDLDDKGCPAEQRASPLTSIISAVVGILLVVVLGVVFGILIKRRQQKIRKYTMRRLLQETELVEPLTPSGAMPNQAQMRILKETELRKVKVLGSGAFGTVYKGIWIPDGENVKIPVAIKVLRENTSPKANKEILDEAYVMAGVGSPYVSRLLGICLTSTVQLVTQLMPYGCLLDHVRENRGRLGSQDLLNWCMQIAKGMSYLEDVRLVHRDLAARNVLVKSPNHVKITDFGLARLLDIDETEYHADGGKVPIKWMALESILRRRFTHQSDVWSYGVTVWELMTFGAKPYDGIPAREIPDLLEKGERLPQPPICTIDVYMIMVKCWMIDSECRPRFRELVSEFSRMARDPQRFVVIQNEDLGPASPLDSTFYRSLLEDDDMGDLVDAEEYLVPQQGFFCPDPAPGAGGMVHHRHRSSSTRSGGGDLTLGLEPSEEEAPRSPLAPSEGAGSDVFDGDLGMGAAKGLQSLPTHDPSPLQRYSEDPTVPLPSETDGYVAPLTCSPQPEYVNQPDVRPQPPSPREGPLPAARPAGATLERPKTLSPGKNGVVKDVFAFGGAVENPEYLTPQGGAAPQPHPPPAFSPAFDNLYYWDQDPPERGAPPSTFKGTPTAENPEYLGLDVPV
Description: as §1

SIK3 = molecular target: T17, SIK3 (Homo sapiens, UniProt Q9Y2K2)
T17 construct: purchased Reaction Biology Corp
Description: as §1

EPHA8 = molecular target: T18, EPHA8 (Homo sapiens, UniProt P29322)
T18 construct: purchased Reaction Biology Corp
Description: as §1

DLK/MAP3K12 = molecular target: T19, DLK/MAP3K12 (Homo sapiens, UniProt Q12852)
T19 construct: purchased Reaction Biology Corp
Description: as §1

CDK2/cyclin E = molecular target: T20, CDK2/cyclin E (Homo sapiens, UniProt P24941)
T20 construct: purchased Reaction Biology Corp
Description: as §1

TNIK = molecular target: T21, TNIK (Homo sapiens, UniProt Q9UKE5)
T21 construct: purchased Reaction Biology Corp
Description: as §1

DRAK1/STK17A = molecular target: T22, DRAK1/STK17A (Homo sapiens, UniProt Q9UEE5)
T22 construct: purchased Reaction Biology Corp
T22 sequence (Q9UEE5 whole entry): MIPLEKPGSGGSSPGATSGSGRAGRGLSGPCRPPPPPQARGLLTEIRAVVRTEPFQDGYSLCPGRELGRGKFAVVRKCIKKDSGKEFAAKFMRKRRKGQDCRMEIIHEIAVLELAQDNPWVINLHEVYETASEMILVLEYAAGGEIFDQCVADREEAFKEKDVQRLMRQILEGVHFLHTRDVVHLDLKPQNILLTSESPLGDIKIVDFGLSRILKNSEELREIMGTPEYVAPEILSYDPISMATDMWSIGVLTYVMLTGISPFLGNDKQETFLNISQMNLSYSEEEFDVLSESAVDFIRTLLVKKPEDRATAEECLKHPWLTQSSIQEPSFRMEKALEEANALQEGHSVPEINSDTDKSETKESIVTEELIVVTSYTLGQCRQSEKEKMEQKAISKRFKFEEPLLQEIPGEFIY
Description: as §1

TESK2 = molecular target: T23, TESK2 (Homo sapiens, UniProt Q96S53)
T23 construct: purchased Reaction Biology Corp
Description: as §1

ZAK/MLTK = molecular target: T24, ZAK/MLTK (Homo sapiens, UniProt Q9NYL2)
T24 construct: purchased Reaction Biology Corp
Description: as §1

HIPK1 = molecular target: T25, HIPK1 (Homo sapiens, UniProt Q86Z02)
T25 construct: purchased Reaction Biology Corp
Description: as §1

BTK = molecular target: T26, BTK (Homo sapiens, UniProt Q06187)
T26 construct: purchased Reaction Biology Corp
Description: as §1

SIK2 = molecular target: T27, SIK2 (Homo sapiens, UniProt Q9H0K1)
T27 construct: purchased Reaction Biology Corp
Description: as §1

GRK6 = molecular target: T28, GRK6 (Homo sapiens, UniProt P43250)
T28 construct: purchased Reaction Biology Corp
Description: as §1

TIE2/TEK = molecular target: T29, TIE2/TEK (Homo sapiens, UniProt Q02763)
T29 construct: purchased Reaction Biology Corp
Description: as §1

TGFBR2 = molecular target: T30, TGFBR2 (Homo sapiens, UniProt P37173)
T30 construct: purchased Reaction Biology Corp
T30 sequence (P37173 23-567): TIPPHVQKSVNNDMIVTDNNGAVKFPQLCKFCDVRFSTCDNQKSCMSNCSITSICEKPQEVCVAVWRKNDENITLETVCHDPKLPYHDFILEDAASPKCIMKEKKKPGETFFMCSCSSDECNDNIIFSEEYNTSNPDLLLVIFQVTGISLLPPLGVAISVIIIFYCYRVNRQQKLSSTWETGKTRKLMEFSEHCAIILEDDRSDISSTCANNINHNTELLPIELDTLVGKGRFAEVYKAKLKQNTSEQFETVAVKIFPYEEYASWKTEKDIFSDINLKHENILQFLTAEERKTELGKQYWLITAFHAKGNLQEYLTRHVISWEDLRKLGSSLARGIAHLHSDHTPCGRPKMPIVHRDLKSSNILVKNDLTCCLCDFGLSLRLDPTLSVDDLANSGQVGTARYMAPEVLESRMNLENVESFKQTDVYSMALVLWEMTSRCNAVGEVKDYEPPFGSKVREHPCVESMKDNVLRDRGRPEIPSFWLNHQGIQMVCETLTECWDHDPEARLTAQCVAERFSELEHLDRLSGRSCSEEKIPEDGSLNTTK
Description: as §1

HCK = molecular target: T31, HCK (Homo sapiens, UniProt P08631)
T31 construct: purchased Reaction Biology Corp
Description: as §1

STK22D/TSSK1 = molecular target: T32, STK22D/TSSK1 (Homo sapiens, UniProt Q9BXA7)
T32 construct: purchased Reaction Biology Corp
T32 sequence (Q9BXA7 whole entry): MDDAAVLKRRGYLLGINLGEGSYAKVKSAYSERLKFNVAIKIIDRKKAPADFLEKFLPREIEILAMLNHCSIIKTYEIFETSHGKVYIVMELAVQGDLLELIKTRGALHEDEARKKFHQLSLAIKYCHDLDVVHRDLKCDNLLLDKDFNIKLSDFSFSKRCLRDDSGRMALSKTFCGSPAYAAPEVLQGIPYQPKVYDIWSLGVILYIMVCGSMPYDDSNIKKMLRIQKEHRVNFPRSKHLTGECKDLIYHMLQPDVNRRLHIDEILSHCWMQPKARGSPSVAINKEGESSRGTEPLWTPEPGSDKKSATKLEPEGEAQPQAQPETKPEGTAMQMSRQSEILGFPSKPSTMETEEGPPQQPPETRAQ
Description: as §1

TSSK3/STK22C = molecular target: T33, TSSK3/STK22C (Homo sapiens, UniProt Q96PN8)
T33 construct: purchased Reaction Biology Corp
T33 sequence (Q96PN8 whole entry): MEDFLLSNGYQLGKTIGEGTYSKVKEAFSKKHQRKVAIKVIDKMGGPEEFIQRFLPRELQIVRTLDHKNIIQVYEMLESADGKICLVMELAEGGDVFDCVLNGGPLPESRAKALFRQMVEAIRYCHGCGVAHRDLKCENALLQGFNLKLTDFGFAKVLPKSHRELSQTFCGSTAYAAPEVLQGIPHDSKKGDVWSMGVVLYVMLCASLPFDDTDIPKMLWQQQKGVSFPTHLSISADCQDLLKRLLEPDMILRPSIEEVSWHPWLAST
Description: as §1

PDGFRa = molecular target: T34, PDGFRa (Homo sapiens, UniProt P16234)
T34 construct: purchased Reaction Biology Corp
T34 sequence (P16234 24-1089): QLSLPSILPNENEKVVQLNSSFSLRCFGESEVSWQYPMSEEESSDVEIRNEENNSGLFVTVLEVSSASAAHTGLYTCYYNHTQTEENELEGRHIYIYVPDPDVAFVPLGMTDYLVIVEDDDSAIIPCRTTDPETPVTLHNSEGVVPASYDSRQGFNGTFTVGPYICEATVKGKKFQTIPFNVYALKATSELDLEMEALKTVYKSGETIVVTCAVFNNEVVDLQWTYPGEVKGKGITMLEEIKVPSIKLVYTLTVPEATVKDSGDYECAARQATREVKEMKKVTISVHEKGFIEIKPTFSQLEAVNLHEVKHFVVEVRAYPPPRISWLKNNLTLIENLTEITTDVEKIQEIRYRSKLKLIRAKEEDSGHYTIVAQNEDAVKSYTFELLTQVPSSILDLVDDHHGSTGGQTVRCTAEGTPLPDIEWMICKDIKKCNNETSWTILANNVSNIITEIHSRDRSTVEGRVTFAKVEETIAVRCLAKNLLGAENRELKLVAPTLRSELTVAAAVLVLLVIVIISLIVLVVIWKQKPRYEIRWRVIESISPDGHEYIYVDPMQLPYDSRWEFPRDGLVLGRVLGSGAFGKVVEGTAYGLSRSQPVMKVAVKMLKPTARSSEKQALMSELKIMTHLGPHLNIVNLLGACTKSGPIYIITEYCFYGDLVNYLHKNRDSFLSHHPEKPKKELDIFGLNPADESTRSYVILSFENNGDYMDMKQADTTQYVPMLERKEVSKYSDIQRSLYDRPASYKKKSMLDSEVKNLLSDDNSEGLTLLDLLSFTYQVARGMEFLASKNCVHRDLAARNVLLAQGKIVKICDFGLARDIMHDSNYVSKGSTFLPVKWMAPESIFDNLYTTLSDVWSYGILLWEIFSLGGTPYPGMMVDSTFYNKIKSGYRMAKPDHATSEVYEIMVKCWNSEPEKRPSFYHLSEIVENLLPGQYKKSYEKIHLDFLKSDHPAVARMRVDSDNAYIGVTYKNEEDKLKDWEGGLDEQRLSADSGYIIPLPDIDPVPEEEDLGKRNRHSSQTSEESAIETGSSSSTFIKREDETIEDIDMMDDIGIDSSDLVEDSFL
Description: as §1

PHKg2 = molecular target: T35, PHKg2 (Homo sapiens, UniProt P15735)
T35 construct: purchased Reaction Biology Corp
Description: as §1

CK2a2 = molecular target: T36, CK2a2 (Homo sapiens, UniProt P19784)
T36 construct: purchased Reaction Biology Corp
Description: as §1

SSTK/TSSK6 = molecular target: T37, SSTK/TSSK6 (Homo sapiens, UniProt Q9BXA6)
T37 construct: purchased Reaction Biology Corp
T37 sequence (Q9BXA6 whole entry): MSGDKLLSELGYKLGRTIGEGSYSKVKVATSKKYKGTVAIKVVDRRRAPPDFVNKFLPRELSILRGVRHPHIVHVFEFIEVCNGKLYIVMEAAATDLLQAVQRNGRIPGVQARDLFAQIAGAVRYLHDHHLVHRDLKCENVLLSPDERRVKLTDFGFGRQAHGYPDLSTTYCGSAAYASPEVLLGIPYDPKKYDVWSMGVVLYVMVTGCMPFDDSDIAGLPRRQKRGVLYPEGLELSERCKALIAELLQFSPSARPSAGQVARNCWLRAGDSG
Description: as §1

TAK1 = molecular target: T38, TAK1 (Homo sapiens, UniProt O43318)
T38 construct: purchased Reaction Biology Corp
Description: as §1

ERN1/IRE1 = molecular target: T39, ERN1/IRE1 (Homo sapiens, UniProt O75460)
T39 construct: purchased Reaction Biology Corp
Description: as §1

EPHB2 = molecular target: T40, EPHB2 (Homo sapiens, UniProt P29323)
T40 construct: purchased Reaction Biology Corp
Description: as §1

GCK/MAP4K2 = molecular target: T41, GCK/MAP4K2 (Homo sapiens, UniProt Q12851)
T41 construct: purchased Reaction Biology Corp
Description: as §1

DAPK1 = molecular target: T42, DAPK1 (Homo sapiens, UniProt P53355)
T42 construct: purchased Reaction Biology Corp
Description: as §1

Structure (SMILES): Cc1ccc(Nc2ncc3c(n2)N(C)C(=O)N(c2cc(C(=O)N[C@H](C(=O)N4CCC[C@H]4C(=O)NC(C)(C)C(=O)N[C@@H](CC(C)C)C(=O)N(C)C)C(C)C)ccc2C)C3)cn1 [7a, (S)-N-(1-(((S)-1-(dimethylamino)-4-methyl-1-oxopentan-2-yl)amino)-2-methyl-1-oxopropan-2-yl)-1-((4-methyl-3-(1-methyl-7-((6-methylpyridin-3-yl)amino)-2-oxo-1,4-dihydropyrimido[4,5-d]pyrimidin-3(2H)-yl)benzoyl)-L-valyl)pyrrolidine-2-carboxamide] (X1-VP[Aib]L-NMe2)
- inhibition at 1 µM (CDK3/cyclin E2): 0%
- inhibition at 1 µM (MARK3): 4%
- inhibition at 1 µM (PLK2): 0%
- inhibition at 1 µM (FLT1/VEGFR1): 9%
- inhibition at 1 µM (KHS/MAP4K5): 23%
- inhibition at 1 µM (DMPK): 0%
- inhibition at 1 µM (p38a/MAPK14): 15%
- inhibition at 1 µM (CDK19/cyclin C): 0%
- inhibition at 1 µM (CDK4/cyclin D1): 0%
- inhibition at 1 µM (NIM1): 4%
- inhibition at 1 µM (RSK4): 0%
- inhibition at 1 µM (JNK1): 0%
- inhibition at 1 µM (KSR2): 5%
- inhibition at 1 µM (ROS/ROS1): 9%
- inhibition at 1 µM (CDK7/cyclin H): 3%
- inhibition at 1 µM (ERBB2/HER2): 10%
- inhibition at 1 µM (SIK3): 12%
- inhibition at 1 µM (EPHA8): 0%
- inhibition at 1 µM (DLK/MAP3K12): 0%
- inhibition at 1 µM (CDK2/cyclin E): 0%
- inhibition at 1 µM (TNIK): 6%
- inhibition at 1 µM (DRAK1/STK17A): 0%
- inhibition at 1 µM (TESK2): 4%
- inhibition at 1 µM (ZAK/MLTK): 14%
- inhibition at 1 µM (HIPK1): 0%
- inhibition at 1 µM (BTK): 6%
- inhibition at 1 µM (SIK2): 2%
- inhibition at 1 µM (GRK6): 4%
- inhibition at 1 µM (TIE2/TEK): 0%
- inhibition at 1 µM (TGFBR2): 0%
- inhibition at 1 µM (HCK): 38%
- inhibition at 1 µM (STK22D/TSSK1): 6%
- inhibition at 1 µM (TSSK3/STK22C): 3%
- inhibition at 1 µM (PDGFRa): 31%
- inhibition at 1 µM (PHKg2): 0%
- inhibition at 1 µM (CK2a2): 3%
- inhibition at 1 µM (SSTK/TSSK6): 0%
- inhibition at 1 µM (TAK1): 4%
- inhibition at 1 µM (ERN1/IRE1): 5%
- inhibition at 1 µM (EPHB2): 29%
- inhibition at 1 µM (GCK/MAP4K2): 13%
- inhibition at 1 µM (DAPK1): 0%
